{
  "source": "paper PMC12592173",
  "about": "“Targeted degradation of EGFR 19Del by PROTACs suppresses tumor growth in non-small-cell lung cancer” (Frontiers in Pharmacology, 2025)",
  "key": {"[1]": {"test_system": "EGFR^Del19", "conditions": "HCC827 cells; ref Zhao et al., 2022; cited from earlier work"}, "[2]": {"test_system": "HCC827 cells", "conditions": "ref Zhao et al., 2022; cited from earlier work"}, "[3]": {"target": "T1, EGFR^L858R (Homo sapiens, UniProt P00533, L858R)", "T1 construct": "expressed in transfected cells; host or cells: Ba/F3 (lentiviral pLVX-EGFR^L858R, puromycin selected)", "assay": "Western blot of EGFR degradation in Ba/F3 cells stably expressing EGFR^L858R", "format": "cell-based", "conditions": "24 h", "procedure": "HCC827 and H1975 cell lines were purchased from ATCC (United States) and cultured according to the manuals. Cells were grown in monolayers in appropriate media supplemented with 10% fetal bovine serum and 1% antibiotic/antimycotic solution. Ba/F3 cells stably expressing EGFR^L858R were obtained by infection with lentivirus produced by co-transfection of pLVX-EGFR^L858R, psPAX2, and pMD2.G into 293T cells, followed by selection with puromycin.\n(§1) Cells at 70%–90% confluence were lysed in RIPA buffer with complete protease inhibitor cocktail (Roche Applied Science, Penzberg, Germany). Lysates were quantified, separated on SDS-PAGE gels, and transferred onto PVDF membranes, followed by the blockade with 5% milk in TBS+ 0.1% Tween-20 buffer for 1 h at room temperature. The following primary antibodies were used: anti-EGFR (1:50000, ABclonal Technology, Wuhan, China), anti-pEGFR (Tyr1068, […], Cell Signaling Technology, MA, United States), anti-AKT (1:10000, ABclonal Technology, Wuhan, China), anti-pAKT (1:10000, ABclonal Technology, Wuhan, China), and anti-β-actin (1:10000, ABclonal Technology, Wuhan, China). Protein bands were detected using Tanon High-signal ECL Western Blotting Substrate (Tanon Science and Technology Co., Ltd., Shanghai, China). The band density of the protein of interest was quantified using ImageJ."}, "[4]": {"target": "EGFR^WT protein (Homo sapiens, UniProt P00533)", "assay": "Immunoblots of EGFR in H1299, H460 and HeLa cells", "format": "cell-based", "conditions": "H1299, H460 and HeLa cell lines, up to 1 μM, 24 h", "procedure": "as §1"}, "[5]": {"target": "T2, EGFR^L858R/T790M protein (Homo sapiens, UniProt P00533, L858R/T790M)", "T2 construct": "nor the EGFR^L858R/T790M protein in the H1975 cell line, up to 1 μM; host or cells: H1975", "assay": "Immunoblots of EGFR in H1975 cells", "format": "cell-based", "conditions": "H1975 cell line, up to 1 μM, 24 h", "procedure": "as §1"}, "[6]": {"test_system": "pEGFR and pAKT", "assay": "Western blot of downstream signaling in HCC827 cells", "format": "cell-based, human", "procedure": "as §1"}, "[7]": {"test_system": "HCC827 cells", "assay": "Cell viability (CCK-8) in HCC827 cells", "format": "cell-based, human", "conditions": "for IC50: Homo sapiens, CCK-8", "procedure": "(§2) The viability of cells was determined using Cell Counting Kit-8 (CCK-8; Dojindo), and IC50 was calculated using GraphPad Prism (version 6.0). For colony formation assays, cells (1 × 10^3 cells/well) seeded in 24-well plates were treated with different concentrations of compounds and replaced with fresh media with compounds every 4 days. After 7 days, the cells were washed with PBS, fixed with methanol, and stained with 0.1% crystal violet solution."}, "[8]": {"test_system": "H1299 cells", "assay": "Cell viability (CCK-8) in H1299 cells", "format": "cell-based", "conditions": "up to 1 μM, 96 h", "procedure": "as §2, with “Cells (5 × 10^3 for 48 h or 1 × 10^3 for 96 h) were seeded in 96-well plates, allowed to attach overnight, and then incubated with various concentrations of compounds for 48 h or 96 h. The” for “The”"}, "[9]": {"test_system": "HeLa cells", "assay": "Cell viability (CCK-8) in HeLa cells", "format": "cell-based", "conditions": "up to 1 μM, 96 h", "procedure": "as §2, with “Cells (5 × 10^3 for 48 h or 1 × 10^3 for 96 h) were seeded in 96-well plates, allowed to attach overnight, and then incubated with various concentrations of compounds for 48 h or 96 h. The” for “The”"}, "[10]": {"test_system": "H1975 cells", "assay": "Cell viability (CCK-8) in H1975 cells", "format": "cell-based", "conditions": "up to 1 μM, 96 h", "procedure": "as §2, with “Cells (5 × 10^3 for 48 h or 1 × 10^3 for 96 h) were seeded in 96-well plates, allowed to attach overnight, and then incubated with various concentrations of compounds for 48 h or 96 h. The” for “The”"}, "[11]": {"test_system": "HCC827 cells", "assay": "Colony formation assay in HCC827 cells", "format": "cell-based, human", "conditions": "HCC827, 7 days", "procedure": "as §2, with “Cells (5 × 10^3 for 48 h or 1 × 10^3 for 96 h) were seeded in 96-well plates, allowed to attach overnight, and then incubated with various concentrations of compounds for 48 h or 96 h. The” for “The”"}, "[12]": {"test_system": "HCC827 cells", "assay": "Apoptosis assay (Annexin V-FITC/PI, flow cytometry)", "format": "cell-based, human", "conditions": "HCC827, 10 nM, 48 h", "description": "The percentage of apoptotic cells in total cells was designated as the apoptotic index."}, "[13]": {"test_system": "HCC827 human tumor xenograft", "assay": "HCC827 xenograft tumor growth in BALB/c nude mice", "format": "in vivo, mouse", "procedure": "(§3) Female BALB/c nude mice (5–6 weeks old) were purchased from Changzhou Cavens Laboratory Animal Co., Ltd. (China) and housed under pathogen-free conditions. HCC827 cells (5 × 10^6) suspended in 150 μL PBS were inoculated subcutaneously on the left flank of the mouse. When tumor volume reached an average of 70–80 mm^3, mice were randomly assigned to two groups (three mice in each group). […] The tumor volume was calculated as follows: tumor volume (mm^3) = (length × width^2)/2. All animal experiments were approved by the Ethics Committee for laboratory animals, The Nanjing Han & Zaenker Cancer Institute (File number: OGKQSPF/SQ-112)."}, "[14]": {"assay": "Mouse weights in HCC827 xenograft study", "format": "in vivo", "conditions": "30 mg/kg intraperitoneal, repeated and one-time dosing", "procedure": "Female BALB/c nude mice (5–6 weeks old) were purchased from Changzhou Cavens Laboratory Animal Co., Ltd. (China) and housed under pathogen-free conditions. HCC827 cells (5 × 10^6) suspended in 150 μL PBS were inoculated subcutaneously on the left flank of the mouse. When tumor volume reached an average of 70–80 mm^3, mice were randomly assigned to two groups (three mice in each group). Compound 14 (30 mg/kg, dissolved in 40% PEG 400 and 5% Tween-80) or vehicle (40% PEG 400 and 5% Tween-80) was administered to mice via intraperitoneal injection every 2 days for 21 days. The tumor volume was calculated as follows: tumor volume (mm^3) = (length × width^2)/2. All animal experiments were approved by the Ethics Committee for laboratory animals, The Nanjing Han & Zaenker Cancer Institute (File number: OGKQSPF/SQ-112)."}, "[15]": {"target": "T3, EGFR^Del19 (Homo sapiens, UniProt P00533+Q96SW2, DEL746-750)", "assay": "Western blot of EGFR degradation in HCC827 cells", "format": "cell-based", "parameters": "host or cells: HCC827", "conditions": "for EGFR protein remaining under cycloheximide: HCC827, cycloheximide 100 μg/mL + 10 nM compound", "procedure": "HCC827 and H1975 cell lines were purchased from ATCC (United States) and cultured according to the manuals. Cells were grown in monolayers in appropriate media supplemented with 10% fetal bovine serum and 1% antibiotic/antimycotic solution.\nas §1"}, "[16]": {"target": "T3, EGFR^Del19", "assay": "Western blot of dissected HCC827 xenograft tumors", "format": "in vivo, mouse", "parameters": "from tissue; host or cells: HCC827 xenograft tumours in female BALB/c nude mice", "conditions": "30 mg/kg intraperitoneal", "procedure": "as §1\nas §3, with “All animal experiments were approved by the Ethics Committee for laboratory animals, The Nanjing Han & Zaenker Cancer Institute (File number: OGKQSPF/SQ-112).” left out"}},
  "note": "Several values for one entry are separate records, joined by “and”; a condition that tells them apart may be missing. Equal values may be shown once. Entries after “also recorded” stand apart in the source; their conditions may differ. Read-outs that look alike come from different tables or passages of the source.",
  "data": [
    {"compound": "C=CC(=O)N1CCC[C@H](n2c(Nc3ccccc3)nc3cnc(Nc4ccc(N5CCN(CCCCCCCC(=O)N[C@H](C(=O)N6C[C@H](O)C[C@H]6C(=O)N[C@@H](C)c6ccc(-c7scnc7C)cc6)C(C)(C)C)CC5)cc4)nc32)C1", "note": "[CP17]", "values": [
      {"measurement": "DC50", "setting": "[1]", "result": 0.49, "unit": "nM"},
      {"measurement": "IC50", "setting": "[2]", "result": 1.6, "unit": "nM"}
    ]},
    {"compound": "COc1cc2c(Nc3ccc(F)c(Cl)c3)ncnc2cc1OCCCN1CCN(CCN2CCN(c3ccc4c(c3)C(=O)N(C3CCC(=O)NC3=O)C4=O)CC2)CC1", "note": "(stereo not drawn) [Compound 14]", "values": [
      {"measurement": "DC50", "setting": "[3]; Ba/F3 cells stably expressing EGFR^L858R", "result": 20.6, "unit": "nM"},
      {"measurement": "Degradation of EGFR^L858R compared with MS154", "setting": "[3]; Ba/F3 cells", "result": "remarkable improvements"},
      {"measurement": "Degradation of EGFR^WT protein", "setting": "[4]", "result": "no effect; also recorded: neither compound degraded; also recorded: No significant degradation"},
      {"measurement": "Degradation of EGFR^L858R/T790M protein", "setting": "[5]", "result": "neither compound degraded"},
      {"measurement": "Levels of pEGFR and pAKT", "setting": "[6]", "result": "markedly reduced; also recorded: more marked decreases"},
      {"measurement": "Proliferation after compound removal", "setting": "[7]; HCC827, 10 nM for 8 h, washed, fresh media 24-96 h", "result": "almost completely stopped proliferating; also recorded: completely ceased proliferation"},
      {"measurement": "IC50", "setting": "[7]; HCC827, 48 h, HCC827, 48 h incubation", "result": "~8.29", "unit": "nM"},
      {"measurement": "IC50", "setting": "[7]; HCC827, 96 h, HCC827, 96 h incubation", "result": 4.91, "unit": "nM"},
      {"measurement": "Proliferation of HCC827 cells versus control vehicle", "setting": "[7]; different concentrations", "result": "markedly attenuated the proliferation"},
      {"measurement": "Effect on viability", "setting": "[8]", "result": "not affecting the viability; also recorded: did not affect the viability"},
      {"measurement": "Effect on viability", "setting": "[9]", "result": "not affecting the viability; also recorded: did not affect the viability"},
      {"measurement": "Effect on viability", "setting": "[10]", "result": "not affecting the viability; also recorded: did not affect the viability"},
      {"measurement": "Colony formation", "setting": "[11]", "result": "fewer and smaller colonies"},
      {"measurement": "Increase in the number of apoptotic cells", "setting": "[12]", "result": "at least a two-fold increase"},
      {"measurement": "Mean tumor volume", "setting": "[13]; 30 mg/kg intraperitoneal every 2 days for 21 days", "result": "56.58 ± 10.91", "unit": "mm^3"},
      {"measurement": "Mean tumor volume inhibition", "setting": "[13]; one-time intraperitoneal injection 30 mg/kg, 18 days after treatment, versus vehicle", "result": 79, "unit": "%"},
      {"measurement": "Signs of wasting (mouse weights)", "setting": "[14]", "result": "None of the mice showed signs of wasting"},
      {"measurement": "EGFR degradation (%)", "setting": "[15]; 10 nM, HCC827, 24 h, average of two independent experiments, NA = not active", "result": "66.3% ± 3.5% and 66.3 ± 3.5%"},
      {"measurement": "EGFR protein remaining under cycloheximide", "setting": "[15]; 4 h", "result": 34.5, "unit": "%"},
      {"measurement": "EGFR protein remaining under cycloheximide", "setting": "[15]; 8 h", "result": 12.5, "unit": "%"},
      {"measurement": "Earliest time at which EGFR^Del19 degradation observed", "setting": "[15]; HCC827 cells, 10 nM", "result": 2, "unit": "h"},
      {"measurement": "Dmax at 0.01 µM", "setting": "[15]; HCC827 cells, 10 nM, after 24 h of incubation, read-out: Maximum degradation (Dmax) in time course", "result": 85, "unit": "%"},
      {"measurement": "Duration of sustained EGFR^Del19 degradation", "setting": "[15]; HCC827 cells, 10 nM, continuous incubation", "result": 96, "unit": "h"},
      {"measurement": "Duration of EGFR^Del19 reduction after compound removal", "setting": "[15]; HCC827 cells, 8 h incubation with 10 nM, then washout", "result": "over 72 h"},
      {"measurement": "Degradation of EGFR^Del19 compared with MS154", "setting": "[15]; HCC827 cells, 24 h", "result": "remarkable improvements"},
      {"measurement": "Dmax", "setting": "[15]; HCC827 cells, 24 h, dose-response", "result": 91.2, "unit": "%"},
      {"measurement": "DC50", "setting": "[15]; HCC827 cells, 24 h treatment", "result": "0.26 nM and 0.261 nM"},
      {"measurement": "EGFR^Del19 protein in tumors in vivo", "setting": "[16]", "result": "effectively degraded"}
    ]}
  ]
}
